Experimental data: patent publication US20110294686A1, “EGFR INHIBITOR THERAPY RESPONSIVENESS” (priority 2008, published 2011)
Where two headings read alike, the source gives them in different places.

Columns and labels:
[1] = test system: Metastatic NSCLC patients; details: for Response to gefitinib therapy: metastatic NSCLC
[2] = test system: chemo-refractory advanced stage NSCLC; details: phase II clinical trials; cited from earlier work
[3] = EIF3H FISH negative patients (mean <2.75)
[4] = EIF3H FISH positive patients (mean ≧2.75)
[5] = MYC FISH negative patients (mean <2.79)
[6] = MYC FISH positive patients (mean ≧2.79)

COc1cc2ncnc(Nc3ccc(F)c(Cl)c3)c2cc1OCCCN1CCOCC1 [gefitinib]
response rate (RR) [1, 3]: 0%
time to progression (TTP) [1, 3]: 2.7 months
response rate (RR) [1, 4]: 32%
survival (OS) [1, 4]: 17.8 months
time to progression (TTP) [1, 4]: 4.4 months
Response to gefitinib therapy ([1]; EIF3H amplified patients (ratio EIF3H/CEP8>2)): 30%
Response to gefitinib therapy ([1]; EIF3H non amplified patients): 14%
response rate (RR) [1, 5]: 0%
time to progression (TTP) [1, 5]: 2.6 months
response rate (RR) [1, 6]: 31%
time to progression (TTP) [1, 6]: 4.4 months
Response to gefitinib therapy ([1]; MYC amplified patients): 25%
Response to gefitinib therapy ([1]; MYC non-amplified patients): 14%
patients responding to treatment [2]: 11-20%
